From patent US11013235B2 (priority 2015, dated 2021)
Like-named read-outs stand apart in the source and are kept apart here.

Columns and labels:
Type in all cases: in vivo
[1] = system: Candidatus 'Liberibacter asiaticus'; settings: spraying every 15 days, 12 months after treatment, Citrus sinensis with HLB
Phytophthora parasitica = assay: Control of Phytophthora parasitica disease in tobacco (Pp-Nt); settings: 1 μM spraying every 24 hours for one week, water control 91
Rhizoctonia solani [2] = assay: Control of Rhizoctonia solani disease in tobacco (Rs-Nt); settings: 1 μM spraying every 24 hours for one week, water control 87
Nocardia sp = assay: Control of Nocardia sp disease in tobacco (N-Nt); settings: 1 μM spraying every 24 hours for one week, water control 58
Outline: (§1)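 Plants were inoculated first, then sprayed with compound at 1 μM every 24 hours for one week, with water-sprayed plants as controls and fifty plants per treatment. Read-outs were plant mortality rate for Nocardia, percentage of leaves with symptoms for Alternaria, and lesion diameter for Botrytis.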

Rhizoctonia solani [3] = assay: Control of Rhizoctonia solani disease in tomato (Rs-SI); settings: 1 μM spraying every 24 hours for one week, water control 96
Alternaria solani = assay: Control of Alternaria solani disease in tomato (As-SI); settings: 1 μM spraying every 24 hours for one week, water control 68
Outline: as §1

Botrytis cinerea [4] = assay: Control of Botrytis cinerea disease in Arabidopsis (Bc-At); settings: 1 μM spraying every 24 hours for one week, water control 8.7
Outline: as §1

Botrytis cinerea [5] = assay: Control of Botrytis cinerea disease in tobacco (Bc-Nt); settings: 1 μM spraying every 24 hours for one week, water control 6.7
Outline: as §1

Botrytis cinerea [6] = assay: Control of Botrytis cinerea disease in tomato (Bc-SI); settings: 1 μM spraying every 24 hours for one week, water control 7.4
Outline: as §1

Radopholus similis = assay: Nematode control, nodules per plant: Radopholus similis; settings: 1 μM foliar application every 5 days, evaluation 35 days after, control 45
Outline: (§2)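 Each compound was dissolved in ethanol, then diluted with water to 1 μM. Only the leaves were sprayed, with applications repeated every 5 days on ten plants per treatment. After 35 days, nodules per plant were quantified.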

Meloidogyne incognita = assay: Nematode control, nodules per plant: Meloidogyne incognita; settings: 1 μM foliar application every 5 days, evaluation 35 days after, control 34
Outline: as §2

Pratylenchus coffeae = assay: Nematode control, nodules per plant: Pratylenchus coffeae; settings: 1 μM foliar application every 5 days, evaluation 35 days after, control 42
Outline: as §2

Structure (SMILES) | Titers of the bacterium ([1]; 0.001 μM) | Titers of the bacterium ([1]; 0.01 μM) | Titers of the bacterium ([1]; 1 μM) | Titers of the bacterium ([1]; 5 μM) | Titers of the bacterium ([1]; 10 μM) | Pp-Nt: percentage of mortality (Phytophthora parasitica) | Rs-Nt: percentage of mortality (Rhizoctonia solani [2]) | N-Nt: percentage of mortality (Nocardia sp) | Rs-SI: percentage of mortality (Rhizoctonia solani [3]) | As-SI: percentage of leaves with the disease symptoms (Alternaria solani) | Bc-At: mean of the diameter of the lesion (Botrytis cinerea [4]) | Bc-Nt: mean of the diameter of the lesion (Botrytis cinerea [5]) | Bc-SI: mean of the diameter of the lesion (Botrytis cinerea [6]) | Rs: number of nodules per plant (Radopholus similis) | Mi: number of nodules per plant (Meloidogyne incognita) | Pc: number of nodules per plant (Pratylenchus coffeae)
Cc1nc(N2CCN(n3cccc3)CC2)ncc1C(=O)N1CC2CC(O)C(O)CC2C1 (stereo not shown) [IIIL, 2-({4-methyl-2-[4-(1H-pyrrol-1-yl)piperazin-1-yl]pyrimidin-5-yl}carbonyl)-octahydro-1H-isoindole-5,6-diol] | 524 copies per reaction | 0 copies per reaction | 6 copies per reaction | 54 copies per reaction | 5840 copies per reaction | 0% | 0% | 0% | 0% | 7% | 1.5 mm | 1.5 mm | 2.5 mm | 0 | 0 | 0
Cc1c2c(oc(=O)c1CC(=O)NCC(O)CO)C=CC1C(C3CCCCC3)=COC21 (stereo not shown) [IIJ, 2-{5-cyclohexyl-13-methyl-11-oxo-3,10-dioxatricyclo[7.4.0.0^{2,6}]trideca-1(9),4,7,12-tetraen-12-yl)-N-(2,3-dihydroxypropyl)acetamide] | 435 copies per reaction | 1 copies per reaction | 1 copies per reaction | 45 copies per reaction | 6541 copies per reaction | 1% | 4% | 2% | 2% | 3% | 0.7 mm | 0.9 mm | 1.2 mm | 12 | 4 | 2
Cc1c2c(oc(=O)c1CC(=O)NCC(O)CO)C=CC1C(C3CCCC3)=COC21 (stereo not shown) [IIK, 2-{5-cyclopentyl-13-methyl-11-oxo-3,10-dioxatricyclo[7.4.0.0^{2,6}]trideca-1(9),4,7,12-tetraen-12-yl}-N-(2,3-dihydroxypropyl)acetamide] | 578 copies per reaction | 8 copies per reaction | 0 copies per reaction | 78 copies per reaction | 2365 copies per reaction | 0% | 0% | 1% | 2% | 8% | 1.2 mm | 0.3 mm | 0.8 mm | 0 | 0 | 14
Cc1c2c(oc(=O)c1CC(=O)NCC(O)CO)C=CC1C(c3ccc4ccccc4c3)=COC21 (stereo not shown) [IIL, N-(2,3-dihydroxypropyl)-2-[13-methyl-5-(naphthalen-2-yl)-11-oxo-3,10-dioxatricyclo[7.4.0.0^{2,6}]trideca-1(9),4,7,12-tetraen-12-yl]acetamide] | 635 copies per reaction | 1 copies per reaction | 0 copies per reaction | 65 copies per reaction | 5478 copies per reaction | 0% | 0% | 0% | 0% | 7% | 1.1 mm | 2.0 mm | 1.6 mm | 0 | 0 | 0
Cc1c2c(oc(=O)c1CC(=O)NCC(O)CO)C=CC1C=COC21 (stereo not shown) [IIM, N-(2,3-dihydroxypropyl)-2-{13-methyl-11-oxo-3,10-dioxatricyclo[7.4.0.0^{2,6}]trideca-1(9),4,7,12-tetraen-12-yl}acetamide] | 524 copies per reaction | 0 copies per reaction | 0 copies per reaction | 54 copies per reaction | 8542 copies per reaction | 0% | 0% | 0% | 1% | 5% | 0.5 mm | 0.9 mm | 0.8 mm | 0 | 0 | 0
Cc1c2c(oc(=O)c1CC(=O)NCC(O)CO)C=CC1C(n3cccc3)=COC21 (stereo not shown) [IIN, N-(2,3-dihydroxypropyl)-2-[13-methyl-11-oxo-5-(1H-pyrrol-1-yl)-3,10-dioxatricyclo[7.4.0.0^{2,6}]trideca-1(9),4,7,12-tetraen-12-yl]acetamide] | 598 copies per reaction | 0 copies per reaction | 0 copies per reaction | 98 copies per reaction | 9654 copies per reaction | 3% | 0% | 0% | 1% | 7% | 1.5 mm | 1.5 mm | 2.5 mm | 3 | 0 | 0
Cc1c(CCC(=O)NCC(O)CO)c(=O)oc2cc3occ(C4CCCCC4)c3cc12 (stereo not shown) [IJ, 3-{6-cyclohexyl-4-methyl-2-oxo-2H-furo[3,2-g]chromen-3-yl}-N-(2,3-dihydroxypropyl)propanamide] | 456 copies per reaction | 0 copies per reaction | 18 copies per reaction | 46 copies per reaction | 5840 copies per reaction | 1% | 4% | 2% | 2% | 3% | 1.5 mm | 1.5 mm | 2.5 mm | 18 | 4 | 24
